The compounds below were run against T1, human recombinant PDE9 enzyme (Homo sapiens, UniProt O76083) (assay: Phosphodiesterase 9 (PDE9) inhibitory activity, Scintillation Proximity (SPA) assay). Details: human recombinant PDE9 from SF-9 cells; 50 nM [3H]cGMP; room temperature, 30 min; additional compounds Ex. 115-228; read-out: G5678A (U):IC50.
T1 construct: made in house; host or cells: SF-9 insect cells
T1 sequence (O76083 whole entry): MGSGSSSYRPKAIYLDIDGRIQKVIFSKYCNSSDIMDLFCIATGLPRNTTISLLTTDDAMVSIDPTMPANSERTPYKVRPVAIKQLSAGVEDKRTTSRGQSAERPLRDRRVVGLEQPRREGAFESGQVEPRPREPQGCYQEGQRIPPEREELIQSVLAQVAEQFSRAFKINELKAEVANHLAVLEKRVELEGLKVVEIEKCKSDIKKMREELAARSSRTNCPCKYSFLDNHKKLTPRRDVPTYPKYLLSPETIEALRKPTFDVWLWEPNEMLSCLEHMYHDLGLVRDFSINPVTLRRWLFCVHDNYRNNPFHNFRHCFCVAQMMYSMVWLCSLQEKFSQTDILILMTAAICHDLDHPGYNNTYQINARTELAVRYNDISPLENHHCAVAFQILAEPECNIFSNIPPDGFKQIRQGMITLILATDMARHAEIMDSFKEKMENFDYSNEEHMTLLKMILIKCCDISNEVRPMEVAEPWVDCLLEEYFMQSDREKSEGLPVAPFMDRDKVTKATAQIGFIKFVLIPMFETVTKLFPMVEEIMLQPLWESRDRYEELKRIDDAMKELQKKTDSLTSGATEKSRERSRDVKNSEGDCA
Type: biochemical
Procedure, shortened: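 Scintillation proximity read-out of [3H]cGMP hydrolysis after 30 min at room temperature, with enzyme addition starting the reaction. The enzyme was human recombinant PDE9 expressed in SF-9 cells, titrated to keep substrate turnover at 20% or less. Compound wells held 2% DMSO final, and background was defined with excess PDE inhibitor.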
Compound C[C@@H]1CN(Cc2ccc3c(c2)CC(C)(C)O3)C[C@H]1c1nc2c(cnn2C2CCCC2)c(=O)[nH]1 (racemic) [Example 175, 1-cyclopentyl-6-{(3,4-trans)-1-[(2,2-dimethyl-2,3-dihydro-1-benzofuran-5-yl)methyl]-4-methylpyrrolidin-3-yl}-1,5-dihydro-4H-pyrazolo[3,4-d]pyrimidin-4-one] has an IC50 of 74.8 nM. COc1ccc(CN2C[C@@H](C)[C@H](c3nc4c(cnn4C4CCCC4)c(=O)[nH]3)C2)cc1OC (racemic) [Example 176, 1-cyclopentyl-6-[(3,4-trans)-1-(3,4-dimethoxybenzyl)-4-methylpyrrolidin-3-yl]-1,5-dihydro-4H-pyrazolo[3,4-d]pyrimidin-4-one] was tested, and the IC50 was 27.1 nM. For Cc1cnc(CN2C[C@@H](C)[C@H](c3nc4c(cnn4C4CCCC4)c(=O)[nH]3)C2)cn1 (racemic) [Example 177, 1-cyclopentyl-6-{(3,4-trans)-4-methyl-1-[(5-methylpyrazin-2-yl)methyl]pyrrolidin-3-yl)-1,5-dihydro-4H-pyrazolo[3,4-d]pyrimidin-4-one], the IC50 was 42.2 nM. With C[C@@H]1CN(Cc2cn3ccccc3n2)C[C@H]1c1nc2c(cnn2C2CCCC2)c(=O)[nH]1 (racemic) [Example 178, 1-cyclopentyl-6-[(3,4-trans)-1-(imidazo[1,2-a]pyridin-2-ylmethyl)-4-methylpyrrolidin-3-yl]-1,5-dihydro-4H-pyrazolo[3,4-d]pyrimidin-4-one] the IC50 was 44.7 nM. C[C@@H]1CN(Cc2coc(-c3ccccc3)n2)C[C@H]1c1nc2c(cnn2C2CCCC2)c(=O)[nH]1 (racemic) [Example 179, 1-cyclopentyl-6-{(3,4-trans)-4-methyl-1-[(2-phenyl-1,3-oxazol-4-yl)methyl]pyrrolidin-3-yl}-1,5-dihydro-4H-pyrazolo[3,4-d]pyrimidin-4-one] was tested, and the IC50 was 47.2 nM. CC(C)Oc1ccccc1CN1C[C@@H](C)[C@H](c2nc3c(cnn3C3CCCC3)c(=O)[nH]2)C1 (racemic) [Example 181, 1-cyclopentyl-6-[(3,4-trans)-1-(2-isopropoxybenzyl)-4-methylpyrrolidin-3-yl]-1,5-dihydro-4H-pyrazolo[3,4-d]pyrimidin-4-one] showed an IC50 of 134 nM. For C[C@@H]1CN(Cc2cc3ccccc3nn2)C[C@H]1c1nc2c(cnn2C2CCCC2)c(=O)[nH]1 (racemic) [Example 182, 6-[(3,4-trans)-1-(cinnolin-3-ylmethyl)-4-methylpyrrolidin-3-yl]-1-cyclopentyl-1,5-dihydro-4H-pyrazalo[3,4-d]pyrimidin-4-one], the IC50 was 22.5 nM. C[C@@H]1CN(Cc2cccc(OC(F)F)c2)C[C@H]1c1nc2c(cnn2C2CCCC2)c(=O)[nH]1 (racemic) [Example 183, 1-cyclopentyl-6-{(3,4-trans)-1-[3-(difluoromethoxy)benzyl]-4-methylpyrrolidin-3-yl}-1,5-dihydro-4H-pyrazolo[3,4-d]pyrimidin-4-one] showed an IC50 of 29.8 nM. Cc1cc(CN2C[C@@H](C)[C@H](c3nc4c(cnn4C4CCCC4)c(=O)[nH]3)C2)ccc1F (racemic) [Example 184, 1-cyclopentyl-6-[(3,4-trans)-1-(4-fluoro-3-methylbenzyl)-4-methylpyrrolidin-3-yl]-1,5-dihydro-4H-pyrazolo[3,4-d]pyrimidin-4-one] gave an IC50 of 90 nM. With C[C@@H]1CN(Cc2ccc(-n3cccn3)cc2)C[C@H]1c1nc2c(cnn2C2CCCC2)c(=O)[nH]1 (racemic) [Example 185, 1-cyclopentyl-6-{(3,4-trans)-4-methyl-1-[4-(1H-pyrazol-1-yl)benzyl]pyrrolidin-3-yl}-1,5-dihydro-4H-pyrazolo[3,4-d]pyrimidin-4-one] the IC50 was 33.5 nM. Compound Cc1ccn2c(CN3C[C@@H](C)[C@H](c4nc5c(cnn5C5CCCC5)c(=O)[nH]4)C3)c(C)nc2c1 (racemic) [Example 186, 1-cyclopentyl-6-{(3,4-trans)-1-[(2,7-dimethylimidazo[1,2-a]pyridin-3-yl)methyl]-4-methylpyrrolidin-3-yl}-1,5-dihydro-4H-pyrazolo[3,4-d]pyrimidin-4-one] has an IC50 of 155 nM. With C[C@@H]1CN(Cc2cc(Cl)cc(Cl)c2)C[C@H]1c1nc2c(cnn2C2CCCC2)c(=O)[nH]1 (racemic) [Example 187, 1-cyclopentyl-6-[(3,4-trans)-1-(3,5-dichlorobenzyl)-4-methylpyrrolidin-3-yl]-1,5-dihydro-4H-pyrazolo[3,4-d]pyrimidin-4-one] the IC50 was 70.9 nM. Work on CC(C)Oc1ccc(CN2C[C@@H](C)[C@H](c3nc4c(cnn4C4CCCC4)c(=O)[nH]3)C2)cc1 (racemic) [Example 188, 1-cyclopentyl-6-[(3,4-trans)-1-(4-isopropoxybenzyl)-4-methylpyrrolidin-3-yl]-1,5-dihydro-4H-pyrazolo[3,4-d]pyrimidin-4-one] yielded an IC50 of 72.7 nM. Work on C[C@@H]1CN(Cc2ccnc(C(C)(C)O)c2)C[C@H]1c1nc2c(cnn2C2CCCC2)c(=O)[nH]1 (racemic) [Example 189, 1-cyclopentyl-6-[(3,4-trans)-1-{[2-(1-hydroxy-1-methylethyl)pyridin-4-yl]methyl}-4-methylpyrrolidin-3-yl]-1,5-dihydro-4H-pyrazolo[3,4-d]pyrimidin-4-one] yielded an IC50 of 23.7 nM. Work on C[C@@H]1CN(Cc2nc3c(s2)CCCC3)C[C@H]1c1nc2c(cnn2C2CCCC2)c(=O)[nH]1 (racemic) [Example 190, 1-cyclopentyl-6-[(3,4-trans)-4-methyl-1-(4,5,6,7-tetrahydro-1,3-benzothiazol-2-ylmethyl)pyrrolidin-3-yl]-1,5-dihydro-4H-pyrazolo(3,4-d]pyrimidin-4-one] yielded an IC50 of 55.4 nM. With Cc1cc(C)c(CN2C[C@@H](C)[C@H](c3nc4c(cnn4C4CCCC4)c(=O)[nH]3)C2)c(C)c1 (racemic) [Example 191, 1-cyclopentyl-6-[(3,4-trans)-1-(mesitylmethyl)-4-methylpyrrolidin-3-yl]-1,5-dihydro-4H-pyrazolo[3,4-d]pyrimidin-4-one] the IC50 was 198 nM. With C[C@@H]1CN(Cc2c(Cl)cccc2Cl)C[C@H]1c1nc2c(cnn2C2CCCC2)c(=O)[nH]1 (racemic) [Example 192, 1-cyclopentyl-6-[(3,4-trans)-1-(2,6-dichlorobenzyl)-4-methylpyrrolidin-3-yl]-1,5-dihydro-4H-pyrazolo[3,4-d]pyrimidin-4-one] the IC50 was 236 nM. For C[C@@H]1CN(Cc2ccc(C#N)cc2)C[C@H]1c1nc2c(cnn2C2CCCC2)c(=O)[nH]1 (racemic) [Example 193, 4-{[(3,4-trans)-3-(1-cyclopentyl-4-oxo-4,5-dihydro-1H-pyrazolo[3,4-d]pyrimidin-6-yl)-4-methylpyrrolidin-1-yl]methyl}benzonitrile], the IC50 was 57.7 nM. For COc1ccc(F)c(CN2C[C@@H](C)[C@H](c3nc4c(cnn4C4CCCC4)c(=O)[nH]3)C2)c1 (racemic) [Example 194, 1-cyclopentyl-6-[(3,4-trans)-1-(2-fluoro-5-methoxybenzyl)-4-methylpyrrolidin-3-yl]-1,5-dihydro-4H-pyrazolo[3,4-d]pyrimidin-4-one], the IC50 was 54.7 nM. Compound COc1c(C)cnc(CN2C[C@@H](C)[C@H](c3nc4c(cnn4C4CCCC4)c(=O)[nH]3)C2)c1C (racemic) [Example 196, 1-cyclopentyl-6-{(3,4-trans)-1-[(4-methoxy-3,5-dimethylpyridin-2-yl)methyl]-4-methylpyrrolidin-3-yl}-1,5-dihydro-4H-pyrazolo[3,4-d]pyrimidin-4-one] has an IC50 of 187 nM. Work on Cc1cc(C)cc(CN2C[C@@H](C)[C@H](c3nc4c(cnn4C4CCCC4)c(=O)[nH]3)C2)c1 (racemic) [Example 197, 1-cyclopentyl-6-[(3,4-trans)-1-(3,5-dimethylbenzyl)-4-methylpyrrolidin-3-yl]-1,5-dihydro-4H-pyrazolo[3,4-d]pyrimidin-4-one] yielded an IC50 of 53.5 nM. Cc1ccc(CN2C[C@@H](C)[C@H](c3nc4c(cnn4C4CCCC4)c(=O)[nH]3)C2)cc1C (racemic) [Example 198, 1-cyclopentyl-6-[(3,4-trans)-1-(3,4-dimethylbenzyl)-4-methylpyrrolidin-3-yl]-1,5-dihydro-4H-pyrazolo[3,4-d]pyrimidin-4-one] showed an IC50 of 93.6 nM. C[C@@H]1CN(Cc2nc3ccccc3n2C)C[C@H]1c1nc2c(cnn2C2CCCC2)c(=O)[nH]1 (racemic) [Example 199, 1-cyclopentyl-6-{(3,4-trans)-4-methyl-1-[(1-methyl-1H-benzimidazol-2-yl)methyl]pyrrolidin-3-yl}-1,5-dihydro-4H-pyrazolo[3,4-d]pyrimidin-4-one] showed an IC50 of 35.3 nM. C[C@@H]1CN(Cc2ccc3c(c2)OCCN3C)C[C@H]1c1nc2c(cnn2C2CCCC2)c(=O)[nH]1 (racemic) [Example 200, 1-cyclopentyl-6-{(3,4-trans)-4-methyl-1-[(4-methyl-3,4-dihydro-2H-1,4-benzoxazin-7-yl)methyl]pyrrolidin-3-yl}-1,5-dihydro-4H-pyrazolo[3,4-d]pyrimidin-4-one] was tested, and the IC50 was 176 nM. C[C@@H]1CN(CCCc2ccccc2)C[C@H]1c1nc2c(cnn2C2CCCC2)c(=O)[nH]1 (racemic) [Example 201, 1-cyclopentyl-6-[(3,4-trans)-4-methyl-1-(3-phenylpropyl)pyrrolidin-3-yl]-1,5-dihydro-4H-pyrazolo[3,4-d]pyrimidin-4-one] was tested, and the IC50 was 146 nM. C[C@@H]1CN(Cc2ccccc2C(F)(F)F)C[C@H]1c1nc2c(cnn2C2CCCC2)c(=O)[nH]1 (racemic) [Example 202, 1-cyclopentyl-6-{(3,4-trans)-4-methyl-1-[2-(trifluoromethyl)benzyl]pyrrolidin-3-yl}-1,5-dihydro-4H-pyrazolo[3,4-d]pyrimidin-4-one] was tested, and the IC50 was 104 nM. C[C@@H]1CN(CCCC(F)(F)F)C[C@H]1c1nc2c(cnn2C2CCCC2)c(=O)[nH]1 (racemic) [Example 203, 1-cyclopentyl-6-{(3,4-trans)-4-methyl-1-(4,4,4-trifluorobutyl)pyrrolidin-3-yl]-1,5-dihydro-4H-pyrazolo[3,4-d]pyrimidin-4-one] showed an IC50 of 83.7 nM.

Source: patent publication US7964607B2, “Pyrazolo[3,4-d]pyrimidine compounds” (Pfizer Inc., priority 2007, dated 2011)
